Laboratory results taken from patent publication US12692249B2, “WDR5 inhibitors and modulators” (Vanderbilt University, priority 2019, dated 2026).
Read-outs that look alike come from different tables or passages of the source.

Legend:
[1] = tested on: MV4:11 human cancer cell lines; test: Cellular viability / anti-proliferative assay, CellTiter-Glo, 5 day protocol; format: cell-based; conditions: MV4:11 cells, 5 day incubation, CellTiter-Glo, mean of at least two replicates, read-out: GI50 on cellular proliferation of MV4:11 human cancer cell lines
In short: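 Luminescent ATP-based viability (CellTiter-Glo) after a 5-day exposure gave GI50 via sigmoidal fitting, averaged over two or more replicates. Compounds spanned 22 two-fold steps down from 30 μM at 0.3% DMSO, on 200 MV-4-11 cells per well grown in IMDM plus 10% FBS.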

[2] = biological target: WDR5 (Homo sapiens, UniProt P61964); test: TR-FRET competition binding assay, displacement of 10mer-Thr-FAM MLL peptide probe from His-tagged WDR5; conditions: WDR5-His tag (residues 24-334) 2 nM; 10mer-Thr-FAM 150 nM; 60 min, room temperature; read-out: Ki for Inhibition of WDR5 by TR-FRET assay

Row | Compound | GI50 ([1]; Homo sapiens, MV4-11, 120 h) [nM] | Ki [2] [nM] | GI50 [1] [nM]
1 | Cc1ccc2cncc(N3CCc4c(cc(Cn5ccnc5)cc4-c4cn(C)nc4C(F)(F)F)C3=O)c2c1 [Example 16, 7-((1H-Imidazol-1-yl)methyl)-6′-methyl-5-(1-methyl-3-(trifluoromethyl)-1H-pyrazol-4-yl)-3,4-dihydro-1-[2,4′-biisoquinolin]-1-one] | 42 | 0.028 | –
2 | CCc1cnc2cncc(N3CCc4c(cc(Cn5ccnc5)cc4-c4cn(C)nc4C(F)(F)F)C3=O)c2c1 [Example 211, 7-((1H-imidazol-1-yl)methyl)-2-(3-ethyl-1,7-naphthyridin-5-yl)-5-(1-methyl-3-(trifluoromethyl)-1H-pyrazol-4-yl)-3,4-dihydroisoquinolin-1(2H)-one] | 20 | < 0.02 | –
3 | COCc1cc(OC)cc2c(N3CCc4c(cc(Cn5ccnc5)cc4-c4cn(C)nc4C(F)(F)F)C3=O)ccnc12 [Example 150, 7-((1H-Imidazol-1-yl)methyl)-2-(6-methoxy-8-(methoxymethyl)quinolin-4-yl)-5-(1-methyl-3-(trifluoromethyl)-1H-pyrazol-4-yl)-3,4-dihydroisoquinolin-1(2H)-one] | – | 0.025 | 27
4 | COc1cnc2c(c1)[C@@H](N1CCc3c(cc(Cn4ccnc4)cc3-c3cn(C)nc3C(F)(F)F)C1=O)CCC2 [Example 71, (S)-7-((1H-Imidazol-1-yl)methyl)-2-(3-methoxy-5,6,7,8-tetrahydroquinolin-5-yl)-5-(1-methyl-3-(trifluoromethyl)-1H-pyrazol-4-yl)-3,4-dihydroisoquinolin-1(2H)-one] | < 20 | < 0.02 | –
5 | CCc1nc2cccc(N3CCc4c(cc(Cn5ccnc5)cc4-c4cn(C)nc4C(F)(F)F)C3=O)c2cc1C [Example 119, 7-((1H-Imidazol-1-yl)methyl)-2-(2-ethyl-3-methylquinolin-5-yl)-5-(1-methyl-3-(trifluoromethyl)-1H-pyrazol-4-yl)-3,4-dihydroisoquinolin-1(2H)-one] | 457 | 0.057 | –
6 | Cc1cc(N2CCc3c(cc(Cn4ccnc4)cc3-c3cn(C)nc3C(F)(F)F)C2=O)c2cc(N3CC(F)C3)cc(C#N)c2n1 [Example 203, 4-(7-((1H-Imidazol-1-yl)methyl)-5-(1-methyl-3-(trifluoromethyl)-1H-pyrazol-4-yl)-1-oxo-3,4-dihydroisoquinolin-2(1H)-yl)-6-(3-fluoroazetidin-1-yl)-2-methylquinoline-8-carbonitrile] | 49 | 0.025 | –
7 | COc1ccc(N2CCc3c(cc(Cn4ccnc4C)cc3-c3cn(C)nc3C(F)(F)F)C2=O)c2cc(C)cnc12 [Example 11, 2-(8-Methoxy-3-methylquinolin-5-yl)-7-((2-methyl-1H-imidazol-1-yl)methyl)-5-(1-methyl-3-(trifluoromethyl)-1H-pyrazol-4-yl)-3,4-dihydroisoquinolin-1(2H)-one] | 3890 | 0.035 | –

The remaining lines, values ahead:

Row | GI50 ([1]; Homo sapiens, MV4-11, 120 h) [nM] | Ki [2] [nM] | GI50 [1] [nM] | Compound
8 | < 20 | 0.043 | – | COc1ccc2c(C)ncc(N3CCc4c(cc(Cn5ccnc5)cc4-c4cn(C)nc4C(F)(F)F)C3=O)c2c1 [Example 88, 7-((1H-imidazol-1-yl)methy)-6′-methoxy-1′-methyl-5-(1-methyl-3-(trifluoromethyl)-1H-pyrazol-4-yl)-3,4-dihydro-1H-[2,4′-biisoquinolin]-1-one]
9 | 163 | 0.059 | – | COc1ccc2c(=O)[nH]cc(N3CCc4c(cc(Cn5ccnc5)cc4-c4cn(C)nc4C(F)(F)F)C3=O)c2c1 [Example 98, 7-((1H-imidazol-1-yl)methyl)-6′-methoxy-5-(1-methyl-3-(trifluoromethyl)-1H-pyrazol-4-yl)-3,4-dihydro-1H-[2,4′-biisoquinoline]-1,1′(2′H)-dione]
10 | 70 | 0.061 | – | COc1ccc2ncnc(N3CCc4c(cc(Cn5ccnc5)cc4-c4cn(C)nc4C(F)(F)F)C3=O)c2c1 [Example 25, 7-((1H-Imidazol-1-yl)methyl)-2-(6-methoxyquinazolin-4-yl)-5-(1-methyl-3-(trifluoromethyl)-1H-pyrazol-4-yl)-3,4-dihydroisoquinolin-1(2)-one]
